Each molecule was assayed against Cannabinoid receptor 1 (Rattus norvegicus) (UniProt P20272) (assay: Displacement of [3H][…] from CB1 receptor in Rattus norvegicus (rat) cerebellum homogenate at 1 uM after 2 hr by scintillation counting). Conditions: not given.
Format: tissue-based

Sequence of Cannabinoid receptor 1 (Rattus norvegicus) (P20272 whole entry): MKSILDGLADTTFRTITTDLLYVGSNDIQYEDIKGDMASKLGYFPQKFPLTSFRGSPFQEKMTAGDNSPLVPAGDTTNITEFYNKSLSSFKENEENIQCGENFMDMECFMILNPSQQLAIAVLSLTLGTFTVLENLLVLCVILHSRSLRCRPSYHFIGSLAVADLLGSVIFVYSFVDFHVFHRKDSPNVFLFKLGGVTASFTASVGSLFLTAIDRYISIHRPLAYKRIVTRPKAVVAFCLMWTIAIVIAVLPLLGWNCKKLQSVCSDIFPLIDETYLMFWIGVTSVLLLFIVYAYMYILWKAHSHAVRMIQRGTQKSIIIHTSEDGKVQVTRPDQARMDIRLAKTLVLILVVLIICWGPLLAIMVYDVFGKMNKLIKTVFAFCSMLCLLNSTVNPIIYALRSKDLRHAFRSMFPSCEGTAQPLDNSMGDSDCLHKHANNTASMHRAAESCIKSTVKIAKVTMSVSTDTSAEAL

inhibition [%]	SMILES
22	CCOC(=O)CCn1nc(-c2ccc(Cl)cc2)c(-c2ccc(Cl)cc2Cl)n1
26	N#CCCn1nc(-c2ccc(Cl)cc2)c(-c2ccc(Cl)cc2Cl)n1

These molecules were tested against Cannabinoid receptor 1 (Rattus norvegicus, UniProt P20272) (assay: Displacement of [3H][…] from CB1 receptor in Rattus norvegicus (rat) cerebellum homogenate after 2 hr by scintillation counting). Conditions: not given.
Format: tissue-based

Sequence of Cannabinoid receptor 1 (P20272 whole entry): as above

Ki	SMILES
ND(Insoluble)	CCC/C=C\Cn1nnc(-c2ccc(Cl)cc2Cl)c1-c1ccc(Cl)cc1
ND(Insoluble)	CCCCCCn1nnc(-c2ccc(Cl)cc2Cl)c1-c1ccc(Cl)cc1
ND(Insoluble)	C=CCn1nnc(-c2ccc(Cl)cc2Cl)c1-c1ccc(Cl)cc1

Same assay, conditions: read-out: Ki

SMILES	Ki [nM]
N#CCn1nc(-c2ccc(Cl)cc2)c(-c2ccc(Cl)cc2Cl)n1	232
FCCn1nc(-c2ccc(Cl)cc2)c(-c2ccc(Cl)cc2Cl)n1	79
OCCn1nc(-c2ccc(Cl)cc2)c(-c2ccc(Cl)cc2Cl)n1	660
Clc1ccc(-c2c(-c3ccc(Cl)cc3Cl)nnn2Cc2ccccc2)cc1	187
ClCCn1nc(-c2ccc(Cl)cc2)c(-c2ccc(Cl)cc2Cl)n1	80
Clc1ccc(-c2nn(Cc3ccccc3)nc2-c2ccc(Cl)cc2Cl)cc1	230

The remaining lines, values ahead:

Ki [nM]	SMILES
152	CCCn1nnc(-c2ccc(Cl)cc2Cl)c1-c1ccc(Cl)cc1
247	COC(=O)Cn1nnc(-c2ccc(Cl)cc2Cl)c1-c1ccc(Cl)cc1
163	OCCn1nnc(-c2ccc(Cl)cc2Cl)c1-c1ccc(Cl)cc1
421	FCCn1nnc(-c2ccc(Cl)cc2Cl)c1-c1ccc(Cl)cc1
2360	COC(=O)CCn1nc(-c2ccc(Cl)cc2)c(-c2ccc(Cl)cc2Cl)n1
855	COC(=O)Cn1nc(-c2ccc(Cl)cc2)c(-c2ccc(Cl)cc2Cl)n1

Each molecule was assayed against Cannabinoid receptor 1 (Rattus norvegicus) (UniProt P20272) (assay: Displacement of [3H][…] from CB1 receptor in Rattus norvegicus (rat) cerebellum homogenate at 100 uM after 2 hr by scintillation counting). Conditions: not given.
Format: tissue-based

inhibition [%]	SMILES
30	CCCCOC(=O)n1nc(-c2ccc(Cl)cc2)c(-c2ccc(Cl)cc2Cl)n1
